Assay [1] relates to feces of an equol producer (microorganisms having conversion ability to equol). Kind of assay: Effect of carbohydrates upon equol production in anaerobic culture of feces of an equol producer with daidzein. The settings on record: for activity at 1 %: Homo sapiens; for Equol concentration in medium: anaerobic, 37° C., no carbohydrate 18.1 μM; for daidzein added to the medium remaining: 100 μM of daidzein added. Type of assay: cell-based. The source says:
The equol concentration regulating activity of a carbohydrate can be checked by taking feces from a human having ability to produce equol (equol producer), adding daidzein serving as a substrate for equol and a target carbohydrate to the feces thus taken, culturing the feces, determining the concentration of equol in the culture medium and fitting the determined equol concentration to the following equation in comparison with the concentration of equol in a culture medium containing no carbohydrate. Equal concentration regulating activity (%)=(equol concentration of a culture medium containing a target carbohydrate)/(equol concentration of a culture medium containing no carbohydrate)×100
Fresh feces of an equol producer were suspended in a dilute solution (10-fold by volume) containing 0.00255% of KH2PO4, 0.00255% of K2HPO4, 0.006% of NaCl, […] of (NH4)2SO4, 0.000255% of CaCl2, 0.000255% of MgSO4, 0.1% of a 0.1% resazurin solution, 2.2% of an 8% Na2CO3 solution and 0.05% of L-cysteine hydrochloride by use of glass beads (φ 3 mm) in anaerobic conditions and solid matter was removed by use of sterilized gauze. The solution was centrifuged at 8,000 rpm for 10 minutes. Precipitation was suspended in a dilute solution in the same amount thereof. The solution was stored in a freezer at −30° C. as it was.
The feces dilution solution was thawed and centrifuged again. Precipitation was resuspended in PY medium (100-fold by volume) containing 0.5% of peptone, 0.5% of trypticase peptone, 1% of yeast extract, 0.00005% of hemin, 0.0001% of vitamin K1, 0.05% of L-cysteine hydrochloride, 0.0006% of KH2PO4, 0.0006% of K2HPO4, 0.0012% of NaCl, 0.0006% of (NH4)2SO4, 0.00006% of CaCl2 and 0.00006% of MgSO4. At this time, adonitol, arabinose, cellobiose, erythritol, fructo-oligosaccharide, fructose, galactose, glucose, glycogen, inositol, […], lactitol, lactose, lactulose, maltose, mannitol, mannose, melezitose, melibiose, raffinose, rhamnose, ribose, sorbitol, sorbose, sucrose, trehalose, xylose, or galacto-oligosaccharide was added so as to obtain a final concentration of 1%. Simultaneously, a series of sample containing no carbohydrate was prepared. To the series of samples, daidzein was added so as to obtain a final concentration of 100 μM. Culture was performed in completely anaerobic conditions at 37° C. for 16 hours. Note that culture was performed independently in four series. From the culture solution obtained, daidzein and equol were extracted and subjected to HPLC analysis. Note that inositol used herein is myo-inositol manufactured by SIGMA and glycogen was one derived from oyster and manufactured by SIGMA. Trehalose is D(+) trehalose (α,α form) manufactured by SIGMA and galacto-oligosaccharide is TOS-S, which is a mixture of 4′galactosyl-lactose and 6′galactosyl-lactose, and manufactured by Yakult Pharmaceutical Industry Co., Ltd. Fructo-oligosaccharide is a mixture of 1-kestose, nystose and 1-fructosyl-D-nystose manufactured by Wako Pure Chemical Industries, Ltd.
Daidzein and equol were extracted by the following manner. To 500 μL of a culture solution, 250 μL of diethyl ether was added and sufficiently stirred. The solution mixture was centrifuged at 2,000 rpm for 10 minutes to obtain a diethyl ether layer. The remaining aqueous layer was subjected to diethyl ether extraction performed in the same manner. The ether layers obtained in the two extraction operations were combined, concentrated and dried under spray of nitrogen gas flow at 40° C. The dried product was dissolved in 250 μL of 80% methanol and filtrated through a filter to obtain a sample to be subjected to measurement.
Furthermore, HPLC was performed in the following conditions:
Daidzein and equol standard products were poured in the aforementioned conditions to form calibration curves, respectively. In this manner, daidzein and equol concentrations of the samples were determined. […]

In assay [2] the test system is microorganism having conversion ability to equol. The assay is described as follows: Sub-culture of feces of an equol producer in PY medium containing a carbohydrate (selective medium), daidzein-to-equol conversion. As to conditions: PY medium with 1% carbohydrate, daidzein 100 μM, 37° C., 16 hours per passage. Type of assay: cell-based. The procedure:
A feces suspension solution stored in the process according to Experimental Example 1 was added to 500 μL of PY mediums (to which adonitol or sorbose was previously added so as to obtain a final concentration of 1%; and distilled water was added in place of adonitol or sorbose for preparing a control sample) so as to obtain a content of 1/10 and daidzein was added so as to obtain a final concentration of 100 μM. Each medium was cultured at 37° C. for 16 hours in completely anaerobic conditions. After the culturing, an aliquot of 50 μL was taken from the culture solution and transferred to a fresh PY medium (500 μL). The remaining culture solution was subjected to daidzein and equol extraction. Thereafter, the same operation was repeatedly performed. In this manner, sub-culture was performed. At this time, a bacterial solution was appropriately subjected to gram staining and microscopically observed. The extraction of daidzein and equol, and quantification by HPLC were performed in accordance with the method described in Experimental Example 1. Each obtained daidzein and equol concentration was fitted into the following formula to obtain a daidzein-to-equol conversion rate. Note that culture was performed independently in three series to obtain an average conversion rate and standard deviation thereof. […]

Setting [3] is: relative to medium containing no carbohydrate (=100%), carbohydrate 1%, daidzein 100 μM, 16 hours, read-out: Equol concentration regulating activity.
Where [4] appears, read: sample containing no carbohydrate taken as 100%, carbohydrate 1%, read-out: daidzein-to-equol conversion rate.
Where [5] appears, read: carbohydrate 1%, daidzein 100 μM, 16 hours.
The mark [6] stands for this setting: read-out: daidzein-to-equol conversion rate.
The mark [7] stands for this setting: relative to medium containing no carbohydrate (=100%), carbohydrate 1%, daidzein 100 μM, 16 hours.

Where two headings read alike, the source gives them in different places. Where only a bound is given, the exact number is not on record here.

For `OC[C@H]1O[C@@H](O[C@@H]2[C@@H](CO)OC(O)(CO)[C@H]2O)[C@H](O)[C@@H](O)[C@H]1O` (mixture of isomers) [Lactulose, lactulose], the activity at 1 % is 8.1% in assay [1] (setting [3]) and ≤ 50% in assay [1] (setting [4]). In addition, the “Equol concentration in medium” value in assay [1] (setting [5]) amounted to 1.5 µM.
On to `OC[C@@H](O)[C@@H](O)[C@@H](O)CO` [Adonitol, adonitol], for which the activity at 1 % is 260% in assay [1] (setting [3]) and ≥ 200% in assay [1] (setting [4]). For the same molecule, the “Equol concentration in medium” value in assay [1] (setting [5]) was 47.0 µM. For the same molecule, the “generation to which conversion ability to equol can be maintained in sub-culture” value in assay [2] stood at 8th.
Regarding `O=C[C@@H](O)[C@H](O)[C@H](O)CO` [Arabinose, arabinose], the values for the activity at 1 % in assay [1] (setting [3]) and in assay [1] (setting [4]) were 391% and ≥ 200%, respectively. Also, the “Equol concentration in medium” value in assay [1] (setting [5]) was found to be 70.6 µM.
Turning to `O=C[C@H](O)[C@@H](O)[C@H](O[C@@H]1O[C@H](CO)[C@@H](O)[C@H](O)[C@H]1O)[C@H](O)CO` [Cellobiose, cellobiose], the activity at 1 % in assay [1] (setting [3]) worked out at 161%. In addition, the “Equol concentration in medium” value in assay [1] (setting [5]) stood at 29.0 µM.
In the case of `OC[C@@H](O)[C@@H](O)CO` [Erythritol, erythritol], the values for the activity at 1 % in assay [1] (setting [3]) and in assay [1] (setting [4]) were 214% and ≥ 200%, respectively. Besides, the “Equol concentration in medium” value in assay [1] (setting [5]) was 38.7 µM.
On to `O=C(CO)[C@@H](O)[C@H](O)[C@H](O)CO` [Fructose, fructose], for which the activity at 1 % in assay [1] (setting [3]) was 51.5%. The “Equol concentration in medium” value in assay [1] (setting [5]) turned out to be 9.3 µM.
Consider `O=C[C@H](O)[C@@H](O)[C@@H](O)[C@H](O)CO` [Galactose, galactose], for which the activity at 1 % in assay [1] (setting [6]) is ≥ 200%; in assay [1] (setting [3]) it was 240%. Besides, the “Equol concentration in medium” value in assay [1] (setting [5]) amounted to 65.0 µM.
For `O[C@H]1[C@H](O)[C@@H](O)[C@H](O)[C@@H](O)[C@H]1O` [Inositol, myo-inositol], the values for the activity at 1 % in assay [1] (setting [3]) and in assay [1] (setting [4]) were 416% and ≥ 200%, respectively. Also, the “Equol concentration in medium” value in assay [1] (setting [5]) was 75.2 µM.
For `OC[C@@H](O)[C@@H](O[C@@H]1O[C@H](CO)[C@H](O)[C@H](O)[C@H]1O)[C@H](O)[C@@H](O)CO` [Lactitol, lactitol], in that order: 459%, ≥ 200% and 82.9 µM.
For `OC[C@H]1O[C@@H](O[C@H]2[C@H](O)[C@@H](O)C(O)O[C@@H]2CO)[C@H](O)[C@@H](O)[C@H]1O` (stereo partly shown) [Lactose, lactose], in assay [1] (carbohydrate 1%), the “daidzein added to the medium remaining” value is reported as “mostly remained”. Moreover, in assay [1] (setting [3]), the activity at 1 % worked out at 0%. Also, the activity at 1 % in assay [1] (setting [4]) was ≤ 50%. Also, in assay [1] (setting [5]), the equol production entry is recorded as “not observed” and the “Equol concentration in medium” value amounted to 0.0 µM.
For the molecule `OC[C@H]1O[C@H](O[C@H]2[C@H](O)[C@@H](O)[C@H](O)O[C@@H]2CO)[C@H](O)[C@@H](O)[C@@H]1O` [Maltose, maltose], in assay [1] (setting [3]), the activity at 1 % stood at 58.5%. Besides, in assay [1] (setting [5]), the “Equol concentration in medium” value amounted to 10.6 µM.
`OC[C@@H](O)[C@@H](O)[C@H](O)[C@H](O)CO` [Mannitol, mannitol]: the activity at 1 % in assay [1] (setting [3]) came out at 182%. Besides, the “Equol concentration in medium” value in assay [1] (setting [5]) turned out to be 32.9 µM.
With `OC[C@H]1O[C@@](CO)(O[C@H]2O[C@H](CO)[C@@H](O)[C@H](O)[C@H]2O)[C@@H](O[C@H]2O[C@H](CO)[C@@H](O)[C@H](O)[C@H]2O)[C@@H]1O` [Melezitose, melezitose], the activity at 1 % was 412% in assay [1] (setting [3]) and ≥ 200% in assay [1] (setting [4]). Besides, the “Equol concentration in medium” value in assay [1] (setting [5]) worked out at 74.3 µM.
For the molecule `OC[C@H]1O[C@H](OCC2O[C@@H](O)[C@H](O)[C@@H](O)[C@@H]2O)[C@H](O)[C@@H](O)[C@H]1O` (stereo partly shown) [Melibiose, melibiose], the “Equol concentration in medium” value in assay [1] (setting [5]) came to 4.5 µM. The “Equol concentration regulating activity” value in assay [1] (setting [7]) worked out at 24.8%.
As for `OC[C@H]1O[C@H](OC[C@H]2O[C@H](O[C@]3(CO)O[C@H](CO)[C@@H](O)[C@@H]3O)[C@H](O)[C@@H](O)[C@@H]2O)[C@H](O)[C@@H](O)[C@H]1O` [Raffinose, raffinose], the “daidzein added to the medium remaining” value in assay [1] (carbohydrate 1%) is listed as “mostly remained”. The figures for the activity at 1 % in assay [1] (setting [3]) and in assay [1] (setting [4]) were 0% and ≤ 50%, respectively. In addition, the equol production entry in assay [1] (setting [5]) is on record as “not observed”. The “Equol concentration in medium” value in assay [1] (setting [5]) was determined as 0.0 µM.
`C[C@H](O)[C@H](O)[C@@H](O)[C@@H](O)C=O` [Rhamnose, rhamnose]: the activity at 1 % in assay [1] (setting [3]) was determined as 116%. In addition, the “Equol concentration in medium” value in assay [1] (setting [5]) was found to be 21.0 µM.
Regarding `O=C[C@H](O)[C@H](O)[C@H](O)CO` [Ribose, ribose], the activity at 1 % was 330% in assay [1] (setting [3]) and ≥ 200% in assay [1] (setting [4]). The “Equol concentration in medium” value in assay [1] (setting [5]) was determined as 59.5 µM.
The corresponding values for `OC[C@@H](O)[C@@H](O)[C@H](O)[C@@H](O)CO` [Sorbitol, sorbitol] are 372%, ≥ 200% and 67.3 µM.
On to `O=C(CO)[C@H](O)[C@@H](O)[C@H](O)CO` [Sorbose, sorbose], for which the activity at 1 % in assay [1] (setting [6]) is ≥ 200%; in assay [1] (setting [3]), 468%. In addition, the “Equol concentration in medium” value in assay [1] (setting [5]) was 84.5 µM. Further, the “generation to which conversion ability to equol can be maintained in sub-culture” value in assay [2] was 11th.
On to `OC[C@H]1O[C@@](CO)(O[C@H]2O[C@H](CO)[C@@H](O)[C@H](O)[C@H]2O)[C@@H](O)[C@@H]1O` [Sucrose, sucrose], for which the “daidzein added to the medium remaining” value in assay [1] (carbohydrate 1%) was “mostly remained”. Also, the activity at 1 % was 0% in assay [1] (setting [3]) and ≤ 50% in assay [1] (setting [4]). Further, the equol production entry in assay [1] (setting [5]) was “not observed”. In assay [1] (setting [5]), the “Equol concentration in medium” value amounted to 0.0 µM.
Turning to `OC[C@H]1O[C@H](O[C@H]2O[C@H](CO)[C@@H](O)[C@H](O)[C@H]2O)[C@H](O)[C@@H](O)[C@@H]1O` [Trehalose, D(+) trehalose], the activity at 1 % in assay [1] (setting [3]) is 404%; in assay [1] (setting [4]) it was ≥ 200%. The “Equol concentration in medium” value in assay [1] (setting [5]) was 72.9 µM.
As to `O=C[C@H](O)[C@@H](O)[C@H](O)CO` [Xylose, xylose], the activity at 1 % in assay [1] (setting [3]) was 443%; in assay [1] (setting [4]), ≥ 200%. For the same molecule, the “Equol concentration in medium” value in assay [1] (setting [5]) stood at 79.9 µM.
Take glycogen: the “Equol concentration in medium” value in assay [1] (setting [5]) worked out at 33.4 µM. Besides, the “Equol concentration regulating activity” value in assay [1] (setting [7]) was 184.8%.

These data come from US9080197B2, “Equol level regulator” (priority 2005, dated 2015).
